Measurements reported in BindingDB's records for doi:10.1016/j.bmc.2009.11.062 (Medical University of Lublin, 2010).

test: Agonist activity beta2-adrenergic receptor in rat ventricular myocytes assessed as cell contraction following electrical stimulation by optical edge tracking method using photodiode array

Row | SMILES | EC50 [nM]
1 | CC[C@H](Cc1ccc(O)cc1)NC[C@H](O)c1cc(O)cc(O)c1 | 8550
2 | C[C@H](Cc1ccc2ccccc2c1)NC[C@H](O)c1cc(O)cc(O)c1 | 133
3 | COc1ccc(C[C@@H](C)NC[C@H](O)c2cc(O)cc(O)c2)c2ccccc12 | 16
